Results: publication PMC9953353 (2023)

What was measured:
[1] = test system: Thi-5R-18 (DNA, aptamer) ATAGGAGTCACGACGACCAGAAGGGCAAATAGCATAATGGATCACATTAGATGAGCCCAGGCTATGTGCGTCTACCTCTTGACTAAT; test: AuNP colorimetric aptasensor; details: NaCl 0.25 M added for aggregation; 10^−7 M tested; response below one tenth of thiamethoxam at 10^−8 M
[2] = test system: truncated Thi-5R-18 (DNA, aptamer) GAAGGGCAAATAGCATAATGGATCACATTAGATGAGCCCAGGCTATGTGCG; test: isothermal titration calorimetry; details: 5 mM KCl, 100 mM NaCl, 1 mM MgCl2; 50 mM Tris-HCl, pH 7.4, 25 °C; Kd could not be fitted; thiamethoxam 1 mM
[3] = test system: Thi-5R-18 (DNA, aptamer) ATAGGAGTCACGACGACCAGAAGGGCAAATAGCATAATGGATCACATTAGATGAGCCCAGGCTATGTGCGTCTACCTCTTGACTAAT; test: isothermal titration calorimetry; details: 5 mM KCl, 100 mM NaCl, 1 mM MgCl2; 50 mM Tris-HCl, pH 7.4, 25 °C; 25 μM aptamer, 1 mM thiamethoxam

Structure (SMILES)	binding [1]	binding [2]	Kd [3] [µM]
CNC(=N[N+](=O)[O-])NCC1CCOC1 (stereo not drawn)	weak		
CN1COCN(Cc2cnc(Cl)s2)C1=N[N+](=O)[O-]		no	49.35
CN/C(=N\[N+](=O)[O-])NCc1cnc(Cl)s1	weak		
O=C(O)CNCP(=O)(O)O	weak		
O=[N+]([O-])N=C1NCCN1Cc1ccc(Cl)nc1	weak		
